# Laboratory results: US20230014181A1, “CULTURE SYSTEM AND METHODS FOR IMPROVED MODELING OF NEUROLOGICAL CONDITIONS” (Genentech, Inc., priority 2021, published 2023)
# Where a name gives a salt, the structure may show the parent alone. Read-outs that look alike come from different tables or passages of the source. Where a SMILES comes first, the peptide text is derived from it. [ ]: non-standard residue; d: D form. Nle = CCCC[C@H](N)C(=O)O
# Key:
# [1] = test system: human iPSC neurons, astrocytes and microglia treated with 5 μM sAβ42s; test: Focused small molecule screen, triple culture (neuron, astrocyte, microglia), rescue from sAβ42s toxicity; assay type: cell-based; settings: for percent rescue from sAβ42s toxicity at 50 µM / percent rescue from sAβ42s toxicity at 0.78 µM: Homo sapiens, iPSC
# Outline: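 Human iPSC neuron-astrocyte co-cultures (8 weeks old), with or without added iPSC microglia (8,000 cells/well), were exposed to 5 μM sAβ42s together with compounds at up to four concentrations: 50–6.25 μM for double cultures and 50–0.78 μM for triple cultures. Rescue of MAP2, synapsin 1/2, CUX2 count or axon (NFL-H/βIII-tubulin) readouts of ≥30% was scored as a hit.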
# [2] = test system: human iPSC neurons and astrocytes treated with 5 μM sAβ42s; test: Focused small molecule screen, double culture (neuron, astrocyte), rescue from sAβ42s toxicity, high content imaging; assay type: cell-based; settings: double culture, 5 μM sAβ42s; for percent rescue from sAβ42s toxicity at 50 µM / percent rescue from sAβ42s toxicity at 25 µM / percent rescue from sAβ42s toxicity at 6.25 µM / percent rescue from sAβ42s toxicity at 12.5 µM: Homo sapiens, iPSC
# Protocol: FIGS. 11A-11D show synapse % rescue versus MAP2% rescue (FIGS. 11A-11B) and beta III tubulin % rescue versus MAP2% rescue (FIGS. 11C-11D), in neurons and astrocytes (FIGS. 11A and 11C) or neurons, astrocytes, and microglia (FIGS. 11B and 11D) treated with 5 μM sAβ42s and small molecules from a focused screen of known neuroprotective agents at multiple concentrations (50 μM, 25 μM, 12.5 μM and 6.25 μM (double culture), 50 μM, 12.5 μM, 3.1 μM and 0.78 μM (triple culture). Small molecules that prevented toxicity in dendrites (MAP2), synapses (Synapsin 1/2), cell count (CUX2), or axons ([…]) at or above 30% were considered hits (red dotted line).
# Neurons from both NSC lines were evaluated by immunofluorescence staining. Briefly, cells were fixed with 4% PFA and 4% sucrose at room temperature for 20 minutes using Bravo automation. Fixed cells were then washed 2 times with PBS using Biotek 406 microplate washer (Beckman Coulter), followed by permeabilization and blocking by incubation with a solution containing 1×PBS, 0.1% Triton X-100, 2% donkey serum, and 1% BSA at room temperature for 30 minutes. Blocking solution was removed and cells were incubated with primary antibodies in blocking solution overnight at 4° C. After washing 6 times with PBS on Biotek 406 cell plate washer (Beckman Coulter), cells were then incubated with fluorophore-conjugated secondary antibodies for 1 hour at room temperature in the dark to avoid photobleaching. Cells were then washed 6 more times in with PBS before imaging. Fluorescent images were captured using IN Cell 6000 confocal microscope (GE Healthcare Life Sciences). The image analysis was performed with IN Cell 6000 analysis software.
# Prior to experimentation, media volume in wells containing neurons was equalized with liquid handling automation (Bravo) in order to ensure precise control of concentrations. All Aβ42 oligomers, anti-Aβ, small molecules, inflammatory cytokines were prepared at 10× concentration and added to Neuronal Culture Media at an appropriate volume. For the repeated dosing experiments, the media were refreshed 50% at each dosing first, before adding Aβ42 oligomers, and/or anti-Aβ antibody at the specified final concentration.
# In double (neuron, astrocyte) and triple (neuron, astrocyte, microglia) cultures, each small molecule listed in Table 1 was tested in the AD model paradigm at up to four concentrations. Molecules that characterized ≥30% rescue in any of the four measurements of dendrites area (MAP2), synapses count (synapsin 1/2), or cell count (CUX2), or axon area (Beta III Tubulin; “BT3”)) were classified as hits (FIGS. 11A-11D, Table 2, and Table 3).
# [3] = 50.00 μM compound, read-out: % B3T rescue
# [4] = 50.00 μM compound, read-out: % MAP2 rescue
# [5] = 50.00 μM compound, read-out: % Synapse rescue
# [6] = 50 μM compound, read-out: % B3T rescue
# [7] = 50 μM compound, read-out: % Cux2 rescue
# [8] = 50 μM compound, read-out: % MAP2 rescue
# [9] = 50 μM compound, read-out: % Synapse rescue
# [10] = 25 μM compound, read-out: % B3T rescue
# [11] = 25 μM compound, read-out: % Cux2 rescue
# [12] = 25 μM compound, read-out: % MAP2 rescue
# [13] = 25 μM compound, read-out: % Synapse rescue
compound,measurement,setting,value
CC(=O)c1c(C)c2cnc(Nc3ccc(N4CCNCC4)cn3)nc2n(C2CCCC2)c1=O [PD 0332991 isethionate],percent rescue from sAβ42s toxicity at 50 µM,[1]; [3],90%
same,percent rescue from sAβ42s toxicity at 50 µM,[1]; [4],-79%
same,percent rescue from sAβ42s toxicity at 50 µM,[1]; [5],-29%
same,percent rescue from sAβ42s toxicity at 50 µM,[2]; [6],69%
same,percent rescue from sAβ42s toxicity at 50 µM,[2]; [7],-37%
same,percent rescue from sAβ42s toxicity at 50 µM,[2]; [8],-97%
same,percent rescue from sAβ42s toxicity at 50 µM,[2]; [9],-15%
CCCC[C@@H](C=O)NC(=O)[C@H](CC(C)C)NC(=O)[C@H](CC(C)C)NC(C)=O [Ac-Leu-Leu-Nle-CHO] (Ac-Leu-Leu-[Nle]-aldehyde),% B3T rescue,[1]; 0.78 μM compound,38%
same,% MAP2 rescue,[1]; 0.78 μM compound,21%
same,% Synapse rescue,[1]; 0.78 μM compound,14%
same,% B3T rescue,[1]; 3.13 μM compound,57%
same,% MAP2 rescue,[1]; 3.13 μM compound,55%
same,% Synapse rescue,[1]; 3.13 μM compound,38%
same,% B3T rescue,[1]; 12.50 μM compound,44%
same,% MAP2 rescue,[1]; 12.50 μM compound,48%
same,% Synapse rescue,[1]; 12.50 μM compound,18%
same,% B3T rescue,[2]; 6.25 μM compound,14%
same,% Cux2 rescue,[2]; 6.25 μM compound,85%
same,% MAP2 rescue,[2]; 6.25 μM compound,31%
same,% Synapse rescue,[2]; 6.25 μM compound,0%
same,% B3T rescue,[2]; 12.5 μM compound,0%
same,% Cux2 rescue,[2]; 12.5 μM compound,87%
same,% MAP2 rescue,[2]; 12.5 μM compound,18%
same,% Synapse rescue,[2]; 12.5 μM compound,−4%
same,% B3T rescue,[2]; 25 μM compound,−11%
same,% Cux2 rescue,[2]; 25 μM compound,87%
same,% MAP2 rescue,[2]; 25 μM compound,20%
same,% Synapse rescue,[2]; 25 μM compound,−5%
same,% B3T rescue,[2]; 50 μM compound,0%
same,% Cux2 rescue,[2]; 50 μM compound,78%
same,% MAP2 rescue,[2]; 50 μM compound,23%
same,% Synapse rescue,[2]; 50 μM compound,2%
O=C1NC(=O)C(c2ccccc2[N+](=O)[O-])=C1Nc1ccc(O)c(Cl)c1 [SB 415286],% B3T rescue,[1]; 50.00 μM compound,78%
same,% MAP2 rescue,[1]; 50.00 μM compound,42%
same,% Synapse rescue,[1]; 50.00 μM compound,40%
same,% B3T rescue,[2]; 50 μM compound,39%
same,% Cux2 rescue,[2]; 50 μM compound,−13%
same,% MAP2 rescue,[2]; 50 μM compound,19%
same,% Synapse rescue,[2]; 50 μM compound,12%
O=c1cc(-c2ccc(O)c(O)c2)oc2cc(O)cc(O)c12 [Luteolin],percent rescue from sAβ42s toxicity at 50 µM,[1]; [3],91%
same,percent rescue from sAβ42s toxicity at 50 µM,[1]; [4],73%
same,percent rescue from sAβ42s toxicity at 50 µM,[1]; [5],75%
same,percent rescue from sAβ42s toxicity at 25 µM,[2]; [10],29%
same,percent rescue from sAβ42s toxicity at 25 µM,[2]; [11],12%
same,percent rescue from sAβ42s toxicity at 25 µM,[2]; [12],26%
same,percent rescue from sAβ42s toxicity at 25 µM,[2]; [13],13%
same,percent rescue from sAβ42s toxicity at 50 µM,[2]; [6],66%
same,percent rescue from sAβ42s toxicity at 50 µM,[2]; [7],19%
same,percent rescue from sAβ42s toxicity at 50 µM,[2]; [8],55%
same,percent rescue from sAβ42s toxicity at 50 µM,[2]; [9],37%
CCCC[C@@H](C=O)NC(=O)[C@H](CC(C)C)NC(=O)OCc1ccccc1 [Calpeptin],percent rescue from sAβ42s toxicity at 50 µM,[1]; [3],66%
same,percent rescue from sAβ42s toxicity at 50 µM,[1]; [4],34%
same,percent rescue from sAβ42s toxicity at 50 µM,[1]; [5],34%
same,percent rescue from sAβ42s toxicity at 6.25 µM,"[2]; 6.25 μM compound, read-out: % B3T rescue",9%
same,percent rescue from sAβ42s toxicity at 6.25 µM,"[2]; 6.25 μM compound, read-out: % Cux2 rescue",70%
same,percent rescue from sAβ42s toxicity at 6.25 µM,"[2]; 6.25 μM compound, read-out: % MAP2 rescue",22%
same,percent rescue from sAβ42s toxicity at 6.25 µM,"[2]; 6.25 μM compound, read-out: % Synapse rescue",6%
same,percent rescue from sAβ42s toxicity at 12.5 µM,"[2]; 12.5 μM compound, read-out: % B3T rescue",4%
same,percent rescue from sAβ42s toxicity at 12.5 µM,"[2]; 12.5 μM compound, read-out: % Cux2 rescue",79%
same,percent rescue from sAβ42s toxicity at 12.5 µM,"[2]; 12.5 μM compound, read-out: % MAP2 rescue",27%
same,percent rescue from sAβ42s toxicity at 12.5 µM,"[2]; 12.5 μM compound, read-out: % Synapse rescue",11%
same,percent rescue from sAβ42s toxicity at 25 µM,[2]; [10],7%
same,percent rescue from sAβ42s toxicity at 25 µM,[2]; [11],91%
same,percent rescue from sAβ42s toxicity at 25 µM,[2]; [12],39%
same,percent rescue from sAβ42s toxicity at 25 µM,[2]; [13],9%
same,percent rescue from sAβ42s toxicity at 50 µM,[2]; [6],20%
same,percent rescue from sAβ42s toxicity at 50 µM,[2]; [7],96%
same,percent rescue from sAβ42s toxicity at 50 µM,[2]; [8],36%
same,percent rescue from sAβ42s toxicity at 50 µM,[2]; [9],15%
CCN(CC)CCNC(=O)c1c(C)[nH]c(/C=C2\C(=O)Nc3ccc(F)cc32)c1C [SU 11248],% B3T rescue,[1]; 0.78 μM compound,69%
same,% MAP2 rescue,[1]; 0.78 μM compound,73%
same,% Synapse rescue,[1]; 0.78 μM compound,68%
same,% B3T rescue,[1]; 3.13 μM compound,74%
same,% MAP2 rescue,[1]; 3.13 μM compound,88%
same,% Synapse rescue,[1]; 3.13 μM compound,77%
same,% B3T rescue,[2]; 25 μM compound,−19%
same,% Cux2 rescue,[2]; 25 μM compound,59%
same,% MAP2 rescue,[2]; 25 μM compound,16%
same,% Synapse rescue,[2]; 25 μM compound,4%
same,% B3T rescue,[2]; 50 μM compound,4%
same,% Cux2 rescue,[2]; 50 μM compound,115%
same,% MAP2 rescue,[2]; 50 μM compound,7%
same,% Synapse rescue,[2]; 50 μM compound,21%
O=C(Nc1cccc(Br)c1)c1cccc(S(=O)(=O)N2CCCCCC2)c1 [AK 7],% B3T rescue,[1]; 0.78 μM compound,79%
same,% MAP2 rescue,[1]; 0.78 μM compound,1%
same,% Synapse rescue,[1]; 0.78 μM compound,3%
same,% B3T rescue,[1]; 3.13 μM compound,77%
same,% MAP2 rescue,[1]; 3.13 μM compound,18%
same,% Synapse rescue,[1]; 3.13 μM compound,13%
same,% B3T rescue,[1]; 12.50 μM compound,81%
same,% MAP2 rescue,[1]; 12.50 μM compound,53%
same,% Synapse rescue,[1]; 12.50 μM compound,42%
same,% B3T rescue,[1]; 50.00 μM compound,56%
same,% MAP2 rescue,[1]; 50.00 μM compound,28%
same,% Synapse rescue,[1]; 50.00 μM compound,17%
same,% B3T rescue,[2]; 50 μM compound,42%
same,% Cux2 rescue,[2]; 50 μM compound,0%
same,% MAP2 rescue,[2]; 50 μM compound,−17%
same,% Synapse rescue,[2]; 50 μM compound,−5%
COc1cccc2c1C(=O)c1c(O)c3c(c(O)c1C2=O)C[C@@](O)(C(C)=O)C[C@@H]3O[C@H]1C[C@H](N)[C@H](O)[C@H](C)O1 [Daunorubicin hydrochloride],percent rescue from sAβ42s toxicity at 0.78 µM,"[1]; 0.78 μM compound, read-out: % B3T rescue",68%
same,percent rescue from sAβ42s toxicity at 0.78 µM,"[1]; 0.78 μM compound, read-out: % MAP2 rescue",74%
same,percent rescue from sAβ42s toxicity at 0.78 µM,"[1]; 0.78 μM compound, read-out: % Synapse rescue",52%
same,percent rescue from sAβ42s toxicity at 25 µM,[2]; [10],73%
same,percent rescue from sAβ42s toxicity at 25 µM,[2]; [11],-23%
same,percent rescue from sAβ42s toxicity at 25 µM,[2]; [12],-122%
same,percent rescue from sAβ42s toxicity at 25 µM,[2]; [13],-27%
same,percent rescue from sAβ42s toxicity at 50 µM,[2]; [6],101%
same,percent rescue from sAβ42s toxicity at 50 µM,[2]; [7],-39%
same,percent rescue from sAβ42s toxicity at 50 µM,[2]; [8],-124%
same,percent rescue from sAβ42s toxicity at 50 µM,[2]; [9],-27%
CC1=NN(c2ccc(C(=O)O)cc2)C(=O)/C1=C\c1ccc(-c2cc(C)c(C)cc2[N+](=O)[O-])o1 [C 646],% B3T rescue,[1]; 0.78 μM compound,27%
same,% MAP2 rescue,[1]; 0.78 μM compound,37%
same,% Synapse rescue,[1]; 0.78 μM compound,28%
same,% B3T rescue,[1]; 12.50 μM compound,42%
same,% MAP2 rescue,[1]; 12.50 μM compound,41%
same,% Synapse rescue,[1]; 12.50 μM compound,38%
same,% B3T rescue,[1]; 50.00 μM compound,53%
same,% MAP2 rescue,[1]; 50.00 μM compound,37%
same,% Synapse rescue,[1]; 50.00 μM compound,39%
same,% B3T rescue,[2]; 50 μM compound,49%
same,% Cux2 rescue,[2]; 50 μM compound,25%
same,% MAP2 rescue,[2]; 50 μM compound,54%
same,% Synapse rescue,[2]; 50 μM compound,19%
